This is an account of results in patent US5733904A, “Method for prevention and treatment of viral infectious diseases for viral suppression” (priority 1996, dated 1998).

The test system of one series is rabbit plasma. The series is described as follows: Blood coagulation time (APTT, PT). On the set-up: species or system rabbit (male, Japanese white). The settings on record: for PT / APTT: N=4, mean ± S.E.; for PT: control 5.8 ± 0.1; for APTT: control 21.2 ± 0.5. As for the experimental part: a) Blood coagulation time:
Rabbits (male, Japanese white, body weight 2-3 kg, Oriental Yeast Co.) were used. […] After adding the test compound to the resultant plasma, activated partial thromboplastin time (APTT) and prothrombin time (PT) were measured by using a coagulometer (Coagtec, Coagtec TE600, EMRA; KC-10A, Baxter).

Series [1] has as its system Herpes simplex virus type I. The series is described as follows: Inhibitory action for plaque formation of Herpes simplex virus type I. It counts as cell-based. The settings on record: mean of two, control 51. The protocol: (§1) Experiments were performed according to a method described in Antiviral Chemistry and Chemotherapy, 5 (6), 366-371, 1994 and Experimental Virology, Ed. by NIH Japan alumni assoc., Maruzen Publ. 1982, p. 65-78 or p. 331-340.
(§2) Vero cells cultured in the medium (Dulbecco's modified MEM added with 10% FBS) were detached by trypsin (Sigma Corp.). The detached cells were suspended by 2×10^5 cells/ml in the same medium, and placed in the wells of a 48 hole plate. The plate was incubated at 37° C. under 5% CO2 for about one day to complete a full-sheet of the cells in all wells. After incubation, cultured supernatant was removed. A solution (50 μl) containing the compound diluted with 4-fold stepwise dilution by virus culture medium (MM: Dulbecco's modified MEM added with 2% FBS), was added thereto.
(§3) A viral solution, 50 μl, in which the number of virus (parainfluenza virus or Herpes simplex virus type I) was adjusted to about 50 pfu (plaque forming unit)/50 μl by MM, was added to each well. MM 400 μl containing 1% methylcellulose was added in each well to provide a compound-added test group. A control group was prepared by adding the viral culture medium without adding the test compound.
(§4) The groups were incubated at 37° C. under 5% CO2 for three days to form plaques and the number of plaques in each well was counted.
(§5) The test compounds were FAS, and the compound of formula [I] where R^1 is hydroxy. The final concentration of the compound in the solution was set to 100, 25, 6.3 and 1.6 μg/ml, respectively. Each test group included 2 wells and a mean of the plaque numbers was obtained.

Another series concerns parainfluenza virus. The series is described as follows: Inhibitory action for plaque formation of parainfluenza virus. In kind it is cell-based. The settings on record: mean of two, control 51.5. The protocol:
as §1, §2, §3, §4, §5

A further series is described as follows: Acute toxicity in mice. Set-up: species or system mouse (Slc: ddy, 5 weeks). The note with it: mouse, in vivo, iv, i. v., male. As for the experimental part:
Acute toxicity of the compounds of the present invention were conducted on rats and mice, and low toxicity was confirmed.

The next series has as its system rabbit platelets. The series is described as follows: Platelet aggregation. It counts as cell-based, rabbit (male, Japanese white). The note with it: for Platelet aggregation rate, ADP: ADP 5 μM, control 66.3 ± 1.4; for Platelet aggregation rate, ADP / Platelet aggregation rate, Collagen: N=4, mean ± S.E.; for Platelet aggregation rate, Collagen: collagen 5 μg/ml, control 82.3 ± 1.6. The protocol:
Rabbits (male, Japanese white, body weight 2-3 kg, Oriental Yeast Co.) were used. Blood was collected from an ear vein, a 1/10 volume of 3.8% sodium citrate was added thereto, and the mixture was centrifuged at 1,000 rpm for 10 minutes.
The supernatant separated by this action was designated platelet rich plasma (PRP), and the precipitate was further centrifuged at 3,000 rpm for 10 minutes to obtain a further supernatant, which was designated platelet poor plasma (PPP).
The number of platelets in the PRP was adjusted to 3×10^5 plate/μl by adding the PPP. A test sample was added to the PRP. After 1 minute, a prepared aqueous solution of ADP (adenosine diphosphate, Sigma Corp.) was added at the final concentration of 5 μM, or an aqueous solution of collagen (Sigma Corp.) was added at the final concentration of 5 μg/ml. The agglutination reaction was measured by using an agglico meter (NBS HEMA TRACER VI). The inhibition rate was calculated by comparing the maximum optical transmittance in samples with the compound to the maximum optical transmittance in samples with a physiological saline.
The compounds used were compounds of the present invention (FAS, and the compound of formula [I] where R^1 is hydroxy (Japanese Patent Unexamined Publication No. 61-152658) and adenosine (Sigma Corp.).

The subject of the next series is HIV-1. The series is described as follows: Comparison of suppressive activity of HIV proliferation with FAS and other anti-HIV drugs (syncytium formation). In kind it is cell-based. The settings on record: for IC50: Human immunodeficiency virus 1, FIG. 5, approximate, read-out: 50% inhibitory concentration, syncytium formation. As for the experimental part: Comparison of suppressive activity of HIV proliferation with FAS and other anti-HIV drugs.
Experiments were conducted by the same method as in Example 3.
The medicaments used in this experiment were compounds of the present invention (FAS, and a compound of formula [I] where R^1 is hydroxy as in the above-mentioned Japanese Patent Unexamined Publication No. 61-152658), ddI (Sigma Corp.) and AZT (Sigma Corp.) which are used as medicaments for the treatment of AIDS, and dextran sulfate (Sigma Corp.).

A further series deals with HIV. The settings on record: Antiviral Res., 22: 273-283, 1993; cited from earlier work.
The subject of series [2] is Env (gp120) protein, HIV-1 infected MOLT-4 cells. The series is described as follows: Suppressive action on expression of Env (gp120) protein on the surface of cells. It counts as cell-based. The note with it: FIG. 3; Env positive cells after 5 days. The protocol: (Suppressive action on expression of Env (gp120) protein on the surface of cells.)
Cells obtained by culturing MOLT-4 (culture condition: 37° C., 5% CO2 /95% air, RPMI medium (GIBCO Corp.) containing 10% FBS) were adjusted to a preferable number of cells (1×10^5 cells/50 μl ). The cell suspension, 50 μl, (infected with MOLT-4 and HIV-1: M.O.I.=1.0) was put in a 96 hole microplate and cultured for 1 hour to infect the cells.
A solution of the compound shown below, 100 μl, was added in each well and cultured for 5 days. The cultured solution was transferred into a plastic tube (Eppendorf Corp.) and centrifuged to collect the cells. The cells were treated with mouse anti-Env gp120 monoclonal antibody (Replingen Inc.) as a primary antibody and FITC (Fluorescein Isothiocyanate) labelled goat anti-mouse IgG (Cappel Corp.) as a secondary antibody to fluoresce. The number of fluorescent cells was fluoroscopically calculated by counting fluorescent cells according to an indirect fluorescent antibody technique (Techniques in HIV Research, Ed. A. Aldoriny and B. D. Walker, Stokton Press, New York, 1990).
Env positive cells (%) was calculated by the following equation:
Env positive cells (%)=(FITC) positive cells/total cells)×100
Compounds: FAS, H-7 and KN-62.
Control: solution without compound was used.

For series [3], the system named is HIV-1 (LAV-1) persistently infected MOLT-4 cells with non-infected MOLT-4 cells. The series is described as follows: Inhibitory activity of HIV syncytia formation: HIV-1 chronic-phase infection. It counts as cell-based. The note with it: FIG. 2; 48 hours. The protocol: b) Activity of the medicament on HIV-1 chronic-phase infection:
Cells obtained by culturing MOLT-4 (culture condition: 37° C., 5% CO2 /95% air, RPMI medium (GIBCO Corp.) containing 10% FBS) were adjusted to a preferable number of cells (1×10^5 cells/50 μl). HIV-1 (LAV-1) preparation, 50 μl was added to the cell suspension, 50 μl and subjected to a mixing culture (infectious condition of HIV-1 to MOLT-4: M.O.I.=1). The infected cell mixture was cultured by exchanging a fresh culture medium every 3 days at a volume rate of 2:5. The culture was continued for more than 1 month to prepare persistent infected cells. The concentration of the persistent infected cells was adjusted to a preferable number of cells (1×10^5 cells/50 μl ) (the persistent infected cell preparation).
Cell preparation without infection was prepared by culturing MOLT-4 (culture condition: 37° C., 5% CO2 /95% air, RPMI medium (GIBCO Corp.) containing 10% FBS) and adjusting the concentration to a preferable number of cells (1×10^5 cells/50 μl).
The persistent infected cell preparation, 50 μl, was placed in the wells of a 96 hole microplate and the non-infected cell preparation, 50 μl, was added therein and cultured for 48 hours. Numbers of the formed syncytia were counted microscopically.
Each compound solution tested was added, 100 μl, at the time of mixing the persistent infected cell preparation with the non-infected cell preparation, to provide the final concentrations shown in FIG. 2 (medicament added test group).
The no-medicament-added group (control group) was prepared by replacing the compound solution, 100 μl.

Series [4] deals with HIV-1 (LAV-1 strain) in MOLT-4 cells. The series is described as follows: Inhibitory activity of HIV syncytia formation: HIV-1 acute-phase infection. In kind it is cell-based. The settings on record: for inhibition at 30 µM: Human immunodeficiency virus 1, MOLT-4, in concentrations of 30 μM, 48 hours; for inhibitory effects on syncytia formation: in concentrations of 2.0 μM. As for the experimental part:
a) Activity of the medicament on HIV-1 acute-phase infection:
Cells obtained by culturing MOLT-4 (American Type Culture Collection ATCC CRL-1582) in RPMI medium (GIBCO Corp.) containing 10% FBS (fetal bovine serum: GIBCO Corp.) (culture condition: 37° C., 5% CO2 /95% air) were prepared to aliquot number of cells (1×10^5 cells/50 μl). The cell suspension, 50 μl and the liquid preparation, 50 μl containing HIV-1 (LAV-1 strain, Wain-Hobson et al., Cell 40: 9-17, 1985) in RPMI medium with 10% FBS were put into each well of a 96 hole microplate and cultured for 48 hours (Infectious condition of MOLT-4 and HIV-1: M.O.I.=4.0).
Each compound was dissolved in RPMI medium containing 10% FBS at the final concentration as shown in FIG. 1 to prepare the medicament solution. The medicament solution, 100 μl was added to the mixture of MOLT-4 cell preparation and HIV-1 preparation at the time of mixing with MOLT-4 and HIV-1 to prepare the final volume of the liquid, 200 μl. The number of formed syncytia were microscopically counted.
Tested compounds were: FAS (fasudil hydrochloride, Chem. Pharm. Bull., 40 (3), 770-773, (1992)), C kinase inhibitor H-7 (1-5-isoquinolinylsulfonyl)-2-methyl-piperazine, Sigma Corp.), and calmodulin kinase II inhibitor KN-62 (1-(N,O-bis-[5-isoquinolinylsulfonyl]-N-methyl-L-tyrosyl)-4-phenyl-piperazine, Sigma Corp., Neuroscience Lett., 129, 47 (1991)) .
The control group without the compound was prepared by replacing the medicament solution, 100 μl.
Syncytium formation activity was calculated by comparing the syncytia formation in the test group to that of the control group in the following equation.
Syncytium formation activity=number of syncytia formed in the medicament-added group/number of syncytia formed in the no-medicament-added group.

On to Heparin, for which the “effect on blood coagulation time (APTT, PT)” value with rabbit plasma was “clearly extended APTT and PT”.
Regarding `O=S(=O)(c1cccc2c(O)nccc12)N1CCCNCC1` [Compound of the formula [I] (R^1 = OH)], the “Plaque No.” value in series [1] (1.6 μg/ml) was found to be 51; in [1] (6.3 μg/ml), 51; in [1] (25 μg/ml), 56; in series [1] (100 μg/ml) it was 37.5; with parainfluenza virus (25 μg/ml), 59; in the series on parainfluenza virus (100 μg/ml), 4.5. For the same compound, the “effect on blood coagulation time (APTT, PT)” value in the series with rabbit plasma is given as “no effect on blood coagulation time”. In addition, the values for the PT in the series on rabbit plasma (30 μM) and in the series on rabbit plasma (100 μM) were 5.6 ± 0.1 s and 5.5 ± 0.1 s, respectively. Further, the values for the APTT in the series on rabbit plasma (30 μM) and with rabbit plasma (100 μM) were 20.2 ± 0.4 s and 20.1 ± 0.4 s, respectively. The LD50 (in general, the dose expected to kill half of the subjects tested) in the series “Acute toxicity in mice” came to 119 mg/kg. Further, the “Platelet aggregation rate, ADP” value with rabbit platelets (10 μM) was found to be 63.0 ± 2.3%; with rabbit platelets (30 μM), 63.8 ± 2.9%; in the series on rabbit platelets (100 μM), 64.3 ± 3.8%. For the same compound, the “Platelet aggregation rate, Collagen” value in the series with rabbit platelets (10 μM) is recorded as 80.0 ± 1.7%; in the series with rabbit platelets (30 μM) it was 79.3 ± 1.1%; in the series with rabbit platelets (100 μM), 81.0 ± 1.2%. Further, in the series on HIV-1, the “inhibitory activity of syncytium formation of HIV-1” value is recorded as “inhibited the formation of syncytium of HIV-1”.
Consider `OC[C@@H]1CC[C@H](n2cnc3c(O)ncnc32)O1` [ddI, 2', 3'-dideoxyinosine], for which the IC50 in the series with HIV-1 is approximately 100 µM.
Still for that read-out and setting: to `Cc1cn([C@H]2C[C@H](N=[N+]=[N-])[C@@H](CO)O2)c(=O)[nH]c1=O` [AZT, 3'-azido-3'-deoxythymidine] belongs approximately 50 µM.
In the case of `Nc1ncnc2c1ncn2[C@@H]1O[C@H](CO)[C@@H](O)[C@H]1O` [Adenosine, adenosine], the “effect on ADP coagulation and collagen coagulation” value with rabbit platelets was “suppressed ADP coagulation and collagen coagulation”.
With `CC1CNCCN1S(=O)(=O)c1cccc2cnccc12` (centres unmarked) [H-7, 1-(5-isoquinoryl-sulfonyl)-2-methyl-piperazine], the “effectiveness against HIV infectious disease” value with HIV is “has not been found to be clearly effective”. Moreover, the “inhibitory activity for Env expression” value in series [2] is “no significant inhibitory activity for Env expression”. Moreover, the “inhibitory activity for syncytium formation” value in series [3] is given as “no inhibitory activity for syncytium formation”. Besides, in series [4], the inhibition – broadly, the drop in the measured response relative to a control, in per cent – at 30 µM was approximately 50% and the “inhibitory effects on syncytia formation” value is on record as “no inhibitory effects were observed”.
As to `CN([C@@H](Cc1ccc(OS(=O)(=O)c2cccc3cnccc23)cc1)C(=O)N1CCN(c2ccccc2)CC1)S(=O)(=O)c1cccc2cnccc12` [KN-62, 1-(N,O-bis-[5-isoquinolinylsulfonyl]-N-methyl-L-tyrosyl)-4-phenyl-piperazine], the “inhibitory activity for Env expression” value in series [2] is given as “weak inhibitory activity for Env expression”. The “inhibitory activity for syncytium formation” value in [3] is “no inhibitory activity for syncytium formation”. Besides, in [4], the inhibition at 30 µM is approximately 75% and the “inhibitory effects on syncytia formation” value was “no inhibitory effects were observed”.
